Experimental data taken from patent publication US20080139578A1, “Substituted piperizines for the treatment of pain” (priority 2006, published 2008).

Key:
Assay type in all cases: in vivo
Male Sprague Dawley rats = assay: Rodent CFA model of inflammatory pain (mechanical hyperalgesia, Ugo Basile paw pressure); details: rat CFA model
[1] = test system: rats (Sprague-Dawley, Harlan); assay: Spared Nerve Ligation (SNL)-induced allodynia model (von Frey filaments); details: rat SNL model
Description: For the neuropathic pain model, rats (Sprague-Dawley, Harlan) were anesthetized with isoflurane and were placed on a heating pad. Using aseptic techniques, the L5 spinal nerve was exposed and ligated. Muscle and skin were closed with 4-0 Polydiaxone and wound clips, respectively. Animals were tested for allodynia 4 weeks post SNL surgery. Only rats that developed allodynia as defined by a significant decrease in their mechanical threshold using von Frey filaments, were used for evaluating the compound. Tactile allodynia was assessed with calibrated von Frey filaments (Stoelting Co), using an up-down paradigm before and at 2 hr and 44 hr post-compound administration. Data are expressed as % reversal=(post-treatment−post-vehicle)/(pre-SNL threshold−post-vehicle)×100.

[2] = test system: Male Sprague-Dawley (Charles River) rats; assay: Capsaicin-induced allodynia model (von Frey filaments); details: rat
Description: Male Sprague-Dawley (Charles River) rats were habituated to the von Frey stands for 4 hr the day prior to the testing day. Tactile allodynia was assessed using calibrated von Frey filaments (up-down method) before and 30, 60 and 120 min post capsaicin injection. Capsaicin (30 μg in 10 μl) was diluted in Ethanol:Tween80:Saline (20:7:73) and administered into the rat left paw. The test compound is administered P.O. at 3, 10 or 30 mg/kg (4 ml/kg) 30 min prior to capsaicin administration. Data are expressed as % inhibition=(post-treatment−post-vehicle)/(pre-capsaicin threshold−post-vehicle)×100. Statistic analysis: 2-way ANOVA (time and dose) and Bonferroni post-hoc analysis comparing each dose to vehicle.

O=C(CC(c1ccccc1)c1ccccc1)N1CCNCC1 [Example 1, 1-(3,3-diphenylpropanoyl)piperazine]
reversal of hyperalgesia (Male Sprague Dawley rats; 3 mg/kg P.O., 3 hr post-dose): 17%
reversal of hyperalgesia (Male Sprague Dawley rats; 3 mg/kg P.O., one hour post-dose): 26%
reversal of hyperalgesia (Male Sprague Dawley rats; 10 mg/kg P.O., 3 hr post-dose): 39%
reversal of hyperalgesia (Male Sprague Dawley rats; 10 mg/kg P.O., one hour post-dose): 43%
reversal of hyperalgesia (Male Sprague Dawley rats; 30 mg/kg P.O., 3 hr post-dose): 44%
reversal of hyperalgesia (Male Sprague Dawley rats; 30 mg/kg P.O., one hour post-dose): 63%
maximal percent reversal of allodynia ([1]; 3 mg/kg P.O.): 11%
maximal percent reversal of allodynia ([1]; 10 mg/kg P.O.): 47%
maximal percent reversal of allodynia ([1]; 30 mg/kg P.O.): 47%
maximal percent inhibition of allodynia ([2]; 3 mg/kg P.O. 30 min before capsaicin challenge): 33%
maximal percent inhibition of allodynia ([2]; 10 mg/kg P.O. 30 min before capsaicin challenge): 46%
maximal percent inhibition of allodynia ([2]; 30 mg/kg P.O. 30 min before capsaicin challenge): 89%
